Source: article PMC9688530, “Development of Ic-ELISA and Colloidal Gold Lateral Flow Immunoassay for the Determination of Cypermethrin in Agricultural Samples” (Biosensors, 2022)

Key:
anti-CYP mAb = experiment: colloidal gold LFIA strip; type: binding, mouse; parameters: key to T line color intensity: +++: More plus signs (+) mean darker red; ++-: More plus signs (+) mean darker red; +--: More plus signs (+) mean darker red; --- means no color band
Protocol: Colloidal gold particles were synthesized with trisodium citrate as a reducing agent according to our previous work. For the preparation of colloidal gold mAb, 6.65 μg/mL anti-CYP mAbs were added to the colloidal gold solution adjusted to pH 8.2 using 0.2 mol/L K2CO3 with shaking at room temperature for 1 h. BSA (1%) was used to block free colloidal gold particles. After 1 h, the mixture was centrifuged at 12,000 revolutions per minute (RPM) for 15 min to remove free anti-CYP mAbs. The centrifuged deposits were resuspended using one-tenth of the original volume of sodium borate solution (0.01 mol/L) containing 2% BSA and 3% sucrose and preserved at 4 °C.
As depicted in Figure 1A, the LFIA strip was assembled into four components. The center section of a PVC plate was affixed to an NC membrane. The sample pad and absorption pad were stuck on both ends of the PVC plate, and both overlapped with the NC membrane by 1 mm. A total of 2 mg/mL of hapten 5-BSA and 0.5 mg/mL of GAMA were sprayed onto the NC membrane as the test line and control line, respectively, with 5 mm intervals by an automatic dispenser. After drying at 37 °C for 12 h, the fabricated cards were cut into 4 mm wide LFIA strips.
One hundred microliters of the CYP standard solution and 4 μL of the colloidal gold mAb solution were added into a micropore and mixed. After 5 min, an LFIA strip was inserted into the mixture solution. During the mixed solution migration from the sample pad to the absorbent pad, colloidal gold mAb was captured by the T and C lines, resulting in the appearance of color bands within 10 min. When the T line disappeared or the color intensity of the T line was lower than that of the C line, the result was positive (Figure 1B,C). When the color intensity of the T line was not less than that of the C line, the result was negative (Figure 1D).
The sensitivity of the LFIA strip was evaluated by a series of CYP standard solutions (0.7, 0.6, 0.5, 0.4, 0.3, 0.2, 0.1, 0 μg/mL). For qualitative analysis, the sensitivity of the LFIA strip was appraised by the visual LOD (vLOD) and the cut-off value. The vLOD is the lowest concentration of CYP at which the lighter color of the T line is observed compared to the C line. The cut-off value is the minimum CYP concentration at which no color band appears on the T line.
The CRs of the LFIA were calculated with the following equation:CR (%) = (vLOD of CYP/vLOD of analogues) × 100%.

[1] = parameters: method as in doi:10.1016/j.cropro.2009.01.003; details: cited from earlier work

Structure (SMILES): CC1(C)C(C=C(Cl)Cl)C1C(=O)OC(C#N)c1cccc(Oc2ccccc2)c1 (stereo not drawn) [CYP, Cypermethrin]
- T line color intensity (anti-CYP mAb; 0.3 µg/mL, Acetone 10 v%): +++
- T line color intensity (anti-CYP mAb; 0.3 µg/mL, Acetone 20 v%): +++
- T line color intensity (anti-CYP mAb; 0.3 µg/mL, Acetone 30 v%): ++-
- T line color intensity (anti-CYP mAb; 0.3 µg/mL, Acetone 40 v%): +--
- T line color intensity (anti-CYP mAb; 0.3 µg/mL, Acetonitrile 10 v%): +++
- T line color intensity (anti-CYP mAb; 0.3 µg/mL, Acetonitrile 20 v%): ++-
- T line color intensity (anti-CYP mAb; 0.3 µg/mL, Acetonitrile 30 v%): +--
- T line color intensity (anti-CYP mAb; 0.3 µg/mL, Acetonitrile 40 v%): ---
- T line color intensity (anti-CYP mAb; 0.3 µg/mL, Dimethyl sulfoxide 10 v%): ++-
- T line color intensity (anti-CYP mAb; 0.3 µg/mL, Dimethyl sulfoxide 20 v%): +++
- T line color intensity (anti-CYP mAb; 0.3 µg/mL, Dimethyl sulfoxide 30 v%): ++-
- T line color intensity (anti-CYP mAb; 0.3 µg/mL, Dimethyl sulfoxide 40 v%): ++-
- T line color intensity (anti-CYP mAb; 0.3 µg/mL, Methanol 10 v%): +++
- T line color intensity (anti-CYP mAb; 0.3 µg/mL, Methanol 20 v%): +++
- T line color intensity (anti-CYP mAb; 0.3 µg/mL, Methanol 30 v%): ++-
- T line color intensity (anti-CYP mAb; 0.3 µg/mL, Methanol 40 v%): +--
- T line color intensity (anti-CYP mAb; 0.3 µg/mL, Na+ 0.07 mol/L): +++
- T line color intensity (anti-CYP mAb; 0.3 µg/mL, Na+ 0.14 mol/L): +++
- T line color intensity (anti-CYP mAb; 0.3 µg/mL, Na+ 0.25 mol/L): +++
- T line color intensity (anti-CYP mAb; 0.3 µg/mL, Na+ 0.5 mol/L): ++-
- T line color intensity (anti-CYP mAb; 0.3 µg/mL, Na+ 1 mol/L): ++-
- T line color intensity (anti-CYP mAb; 0.3 µg/mL, Na+ 2 mol/L): +--
- T line color intensity (anti-CYP mAb; 0.3 µg/mL, pH 6): +++
- T line color intensity (anti-CYP mAb; 0.3 µg/mL, pH 7): +++
- T line color intensity (anti-CYP mAb; 0.3 µg/mL, pH 7.4): +++
- T line color intensity (anti-CYP mAb; 0.3 µg/mL, pH 8): ++-
- T line color intensity (anti-CYP mAb; 0.3 µg/mL, pH 9): +--
- T line color intensity (anti-CYP mAb; 0.4 µg/mL, Acetone 10 v%): ++-
- T line color intensity (anti-CYP mAb; 0.4 µg/mL, Acetone 20 v%): +--
- T line color intensity (anti-CYP mAb; 0.4 µg/mL, Acetone 30 v%): +--
- T line color intensity (anti-CYP mAb; 0.4 µg/mL, Acetone 40 v%): ---
- T line color intensity (anti-CYP mAb; 0.4 µg/mL, Acetonitrile 10 v%): ++-
- T line color intensity (anti-CYP mAb; 0.4 µg/mL, Acetonitrile 20 v%): +--
- T line color intensity (anti-CYP mAb; 0.4 µg/mL, Acetonitrile 30 v%): +--
- T line color intensity (anti-CYP mAb; 0.4 µg/mL, Acetonitrile 40 v%): ---
- T line color intensity (anti-CYP mAb; 0.4 µg/mL, Dimethyl sulfoxide 10 v%): +--
- T line color intensity (anti-CYP mAb; 0.4 µg/mL, Dimethyl sulfoxide 20 v%): +--
- T line color intensity (anti-CYP mAb; 0.4 µg/mL, Dimethyl sulfoxide 30 v%): +--
- T line color intensity (anti-CYP mAb; 0.4 µg/mL, Dimethyl sulfoxide 40 v%): +--
- T line color intensity (anti-CYP mAb; 0.4 µg/mL, Methanol 10 v%): +--
- T line color intensity (anti-CYP mAb; 0.4 µg/mL, Methanol 20 v%): +--
- T line color intensity (anti-CYP mAb; 0.4 µg/mL, Methanol 30 v%): +--
- T line color intensity (anti-CYP mAb; 0.4 µg/mL, Methanol 40 v%): +--
- T line color intensity (anti-CYP mAb; 0.4 µg/mL, Na+ 0.07 mol/L): ++-
- T line color intensity (anti-CYP mAb; 0.4 µg/mL, Na+ 0.14 mol/L): ++-
- T line color intensity (anti-CYP mAb; 0.4 µg/mL, Na+ 0.25 mol/L): ++-
- T line color intensity (anti-CYP mAb; 0.4 µg/mL, Na+ 0.5 mol/L): ++-
- T line color intensity (anti-CYP mAb; 0.4 µg/mL, Na+ 1 mol/L): ++-
- T line color intensity (anti-CYP mAb; 0.4 µg/mL, Na+ 2 mol/L): +--
- T line color intensity (anti-CYP mAb; 0.4 µg/mL, pH 6): ++-
- T line color intensity (anti-CYP mAb; 0.4 µg/mL, pH 7): +--
- T line color intensity (anti-CYP mAb; 0.4 µg/mL, pH 7.4): ++-
- T line color intensity (anti-CYP mAb; 0.4 µg/mL, pH 8): +--
- T line color intensity (anti-CYP mAb; 0.4 µg/mL, pH 9): ---
- T line color intensity (anti-CYP mAb; 0.6 µg/mL, Acetone 10 v%): +--
- T line color intensity (anti-CYP mAb; 0.6 µg/mL, Acetone 20 v%): +--
- T line color intensity (anti-CYP mAb; 0.6 µg/mL, Acetone 30 v%): ---
- T line color intensity (anti-CYP mAb; 0.6 µg/mL, Acetone 40 v%): ---
- T line color intensity (anti-CYP mAb; 0.6 µg/mL, Acetonitrile 10 v%): +--
- T line color intensity (anti-CYP mAb; 0.6 µg/mL, Acetonitrile 20 v%): ---
- T line color intensity (anti-CYP mAb; 0.6 µg/mL, Acetonitrile 30 v%): ---
- T line color intensity (anti-CYP mAb; 0.6 µg/mL, Acetonitrile 40 v%): ---
- T line color intensity (anti-CYP mAb; 0.6 µg/mL, Dimethyl sulfoxide 10 v%): ---
- T line color intensity (anti-CYP mAb; 0.6 µg/mL, Dimethyl sulfoxide 20 v%): ---
- T line color intensity (anti-CYP mAb; 0.6 µg/mL, Dimethyl sulfoxide 30 v%): ---
- T line color intensity (anti-CYP mAb; 0.6 µg/mL, Dimethyl sulfoxide 40 v%): ---
- T line color intensity (anti-CYP mAb; 0.6 µg/mL, Methanol 10 v%): ---
- T line color intensity (anti-CYP mAb; 0.6 µg/mL, Methanol 20 v%): +--
- T line color intensity (anti-CYP mAb; 0.6 µg/mL, Methanol 30 v%): +--
- T line color intensity (anti-CYP mAb; 0.6 µg/mL, Methanol 40 v%): ---
- T line color intensity (anti-CYP mAb; 0.6 µg/mL, Na+ 0.07 mol/L): ---
- T line color intensity (anti-CYP mAb; 0.6 µg/mL, Na+ 0.14 mol/L): +--
- T line color intensity (anti-CYP mAb; 0.6 µg/mL, Na+ 0.25 mol/L): +--
- T line color intensity (anti-CYP mAb; 0.6 µg/mL, Na+ 0.5 mol/L): +--
- T line color intensity (anti-CYP mAb; 0.6 µg/mL, Na+ 1 mol/L): +--
- T line color intensity (anti-CYP mAb; 0.6 µg/mL, Na+ 2 mol/L): ---
- T line color intensity (anti-CYP mAb; 0.6 µg/mL, pH 6): ---
- T line color intensity (anti-CYP mAb; 0.6 µg/mL, pH 7): ---
- T line color intensity (anti-CYP mAb; 0.6 µg/mL, pH 7.4): ---
- T line color intensity (anti-CYP mAb; 0.6 µg/mL, pH 8): ---
- T line color intensity (anti-CYP mAb; 0.6 µg/mL, pH 9): ---
- cut-off value (anti-CYP mAb; optimal buffer): 0.6 µg/mL
- visual limit of detection (vLOD) (anti-CYP mAb; optimal buffer): 0.3 µg/mL
- minimum detection concentration [1]: 800 ng/mL
